Among the data in PubChem BioAssay (NCI) are TGI values, retold here.

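Values below derive from 48-hour exposures of cells grown in 96-well plates, with endpoints linearly interpolated between the two concentrations bracketing the appropriate inhibition level. At the TGI there is no net growth.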

Test systems include SF-268 CNS; OVCAR-5 ovarian; SK-OV-3 ovarian; ACHN renal; NCI-H522 lung; HCT-116 colon; DU-145 prostate; UO-31 renal; NCI/ADR-RES ovarian; T-47D breast; LOX IMVI melanoma.
What all share (assay): inhibition of tumour cell growth, NCI panel, 48 h

For `Clc1cc(Cl)cc(N=C/C=C/Nc2cc(Cl)cc(Cl)c2)c1`, the TGI was 47.6 µM with SF-268 CNS; 51.9 µM in the experiment on OVCAR-5 ovarian; 89 µM in the experiment with SK-OV-3 ovarian; 44.7 µM in the experiment on ACHN renal; 34.1 µM in the experiment with NCI-H522 lung; 30.1 µM with HCT-116 colon. The TGI with DU-145 prostate was 44.3 µM; with UO-31 renal, 71.7 µM; with NCI/ADR-RES ovarian, 34.6 µM; in the experiment on T-47D breast it was more than 100 µM.

Consider `COC(=O)c1ccc(S)c(S(=O)(=O)Nc2n[nH]c(N)n2)c1`, for which the TGI in the experiment with OVCAR-5 ovarian, in the experiment with ACHN renal, in the experiment with NCI-H522 lung, with HCT-116 colon, in the experiment on DU-145 prostate and with UO-31 renal was more than 100 µM each time. Moreover, the TGI in the experiment on NCI/ADR-RES ovarian, in the experiment with LOX IMVI melanoma and in the experiment on T-47D breast was more than 100 µM throughout.

In the case of `O=C1CSC2(CC(/C=C/c3cccc([N+](=O)[O-])c3)=NN2c2cccc(S(=O)(=O)O)c2)N1c1nc2ccccc2s1` (configuration not stated), the TGI was more than 100 µM with SF-268 CNS; 52.1 µM in the experiment with OVCAR-5 ovarian; 94.6 µM with ACHN renal; 34.1 µM in the experiment with NCI-H522 lung; more than 100 µM in the experiment with HCT-116 colon; 40.6 µM in the experiment on DU-145 prostate. Further, the TGI in the experiment with UO-31 renal was 34.3 µM; with NCI/ADR-RES ovarian, 70.1 µM; in the experiment with LOX IMVI melanoma it was 29.1 µM; in the experiment with T-47D breast it was 73.8 µM.

As to `[O-]c1c2cc(-[n+]3c(-c4ccccc4)cc(-c4ccccc4)cc3-c3ccccc3)cc1COCCOCCOCCOCCOC2`, the TGI in the experiment on SF-268 CNS is 93.5 µM; with OVCAR-5 ovarian, more than 100 µM; in the experiment with SK-OV-3 ovarian, more than 100 µM; in the experiment with ACHN renal it was more than 100 µM; with NCI-H522 lung, more than 100 µM; in the experiment on HCT-116 colon it was more than 100 µM. Moreover, the TGI in the experiment with UO-31 renal and with LOX IMVI melanoma was more than 100 µM throughout.

With `O=[N+]([O-])c1cccc2nc3ccccc3c(NCCCNc3c4ccccc4nc4cccc([N+](=O)[O-])c34)c12`, the TGI in the experiment on SF-268 CNS was 0.0387 µM; in the experiment with SK-OV-3 ovarian it was 1.59 µM; in the experiment on ACHN renal, 0.0135 µM; in the experiment on NCI-H522 lung, 0.121 µM; with HCT-116 colon, less than 0.01 µM; with UO-31 renal it was 0.143 µM. For the same molecule, the TGI in the experiment on NCI/ADR-RES ovarian was 1.19 µM; in the experiment with LOX IMVI melanoma, more than 100 µM; in the experiment on T-47D breast it was 0.407 µM.

Consider `C/C(=C\CBr)CCC(Br)C(C)(C)Cl` (configuration not stated), for which the TGI in the experiment on SF-268 CNS, in the experiment with OVCAR-5 ovarian, with SK-OV-3 ovarian, in the experiment on ACHN renal, in the experiment with NCI-H522 lung and in the experiment on HCT-116 colon was more than 100 µM throughout. Further, the TGI in the experiment with UO-31 renal and with LOX IMVI melanoma was more than 100 µM in each case.

Regarding `CCOC(=O)CNC(=O)C(CSC(=O)N(O)c1ccc(Cl)cc1)NC(=O)CCC(N)C(=O)OCC` (configuration not stated), the TGI in the experiment on SF-268 CNS, in the experiment with OVCAR-5 ovarian, with SK-OV-3 ovarian, in the experiment on ACHN renal, in the experiment on HCT-116 colon and in the experiment with DU-145 prostate was more than 50 µM each time. The TGI in the experiment with UO-31 renal, with NCI/ADR-RES ovarian, in the experiment on LOX IMVI melanoma and in the experiment with T-47D breast was more than 50 µM each time.

As to `Oc1ccc2cc(Br)ccc2c1-c1c(O)ccc2ccc(Br)cc12`, the TGI stood at 41.1 µM in the experiment on SF-268 CNS; 30.8 µM with OVCAR-5 ovarian; 24.6 µM in the experiment on SK-OV-3 ovarian; 28 µM in the experiment on ACHN renal; 29.9 µM with NCI-H522 lung; 27.4 µM with HCT-116 colon. The TGI was 29.2 µM in the experiment on DU-145 prostate, 28.8 µM with UO-31 renal, 27.7 µM with NCI/ADR-RES ovarian and 25.3 µM with T-47D breast.

For the molecule `COc1c(=O)cc2cc[nH]c3ccn(C)c1c23`, the TGI in the experiment on SF-268 CNS, in the experiment on OVCAR-5 ovarian, in the experiment with SK-OV-3 ovarian, in the experiment on ACHN renal, in the experiment with HCT-116 colon and with DU-145 prostate was more than 100 µM each time. Also, the TGI with UO-31 renal, with NCI/ADR-RES ovarian, with LOX IMVI melanoma and in the experiment with T-47D breast was more than 100 µM each time.

For `O=c1[nH]c(=S)nc2nc3c4ccc[nH]c4c4ccccc4c3nc12`, the TGI in the experiment on SF-268 CNS, with OVCAR-5 ovarian, in the experiment with SK-OV-3 ovarian, with ACHN renal, in the experiment with NCI-H522 lung and in the experiment on HCT-116 colon was more than 100 µM each time. Besides, the TGI in the experiment with DU-145 prostate and in the experiment on UO-31 renal was more than 100 µM throughout.

For the molecule `COc1ccc(OC)c(CNc2ccc(C(=O)O)cc2)c1`, the TGI in the experiment with SF-268 CNS, with OVCAR-5 ovarian, in the experiment on SK-OV-3 ovarian, in the experiment on ACHN renal, in the experiment on NCI-H522 lung and in the experiment with HCT-116 colon was more than 100 µM each time. For the same molecule, the TGI in the experiment with DU-145 prostate, in the experiment on UO-31 renal, in the experiment on NCI/ADR-RES ovarian and in the experiment on LOX IMVI melanoma was more than 100 µM throughout.

As to `COC(=O)C(CCSC)NC(=O)CNC(=O)CSc1nnc(COc2ccc(Cl)cc2)n1-c1ccccc1` (configuration not stated), the TGI came to 32.7 µM in the experiment with SF-268 CNS; 34.7 µM in the experiment on OVCAR-5 ovarian; 34 µM in the experiment on SK-OV-3 ovarian; 30.7 µM with ACHN renal; 30.5 µM in the experiment on HCT-116 colon; 55.8 µM with DU-145 prostate. The TGI in the experiment on UO-31 renal was 22.1 µM; with NCI/ADR-RES ovarian, more than 100 µM; in the experiment with LOX IMVI melanoma, 23.8 µM; with T-47D breast, 54.7 µM.

Take `Cc1ccc2nc(N/N=C/c3sccc3C)cc(C)c2c1`: the TGI with SF-268 CNS, in the experiment with OVCAR-5 ovarian, in the experiment on SK-OV-3 ovarian, in the experiment with ACHN renal, with HCT-116 colon and in the experiment on DU-145 prostate was more than 100 µM in each case. The TGI in the experiment on UO-31 renal, in the experiment on NCI/ADR-RES ovarian, in the experiment with LOX IMVI melanoma and with T-47D breast was more than 100 µM each time.

On to `Cc1nc2ccc(C(F)(F)F)cc2nc1NCc1ccc(Cl)c(Cl)c1`, for which the TGI is 34 µM in the experiment with SF-268 CNS; 25.9 µM with OVCAR-5 ovarian; 28 µM in the experiment with ACHN renal; 28.8 µM in the experiment with NCI-H522 lung; 32 µM with HCT-116 colon; 31.8 µM in the experiment with DU-145 prostate. Besides, the TGI is 29.9 µM with UO-31 renal, 47.6 µM with NCI/ADR-RES ovarian, 29.6 µM with LOX IMVI melanoma and 9 µM in the experiment with T-47D breast.
